Test results as given in PubChem BioAssay AID256 (DTP/NCI, 2004).
Where “and” joins values, the source holds several entries; their conditions need not be identical. Equal values may be shown once. Inconclusive results and toxic doses are left out. The calls were made as follows: active = survival T/C of 150% or more; inactive = T/C below 125% in these data.

Test system: CD2F1 mice, L1210 leukemia ip, survival T/C
Test: NCI In Vivo Anticancer Drug Screen. Data for tumor model L1210 Leukemia (intraperitoneal) in CD2F1 (CDF1) mice
Conditions: higher = longer survival
Method in brief: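 Antitumor effect is scored in animals hosting a serially transplanted tumor. Values compare compound-dosed animals against vehicle-only controls as a simple quotient.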

[1] = endpoint: mean survival time, dose: 100.0 mg/kg/injection, schedule: Q01DX009 (ip), vehicle: saline with Tween-80
[2] = endpoint: mean survival time, dose: 200.0 mg/kg/injection, schedule: Q01DX009 (ip), vehicle: saline with Tween-80
[3] = endpoint: mean survival time, dose: 400.0 mg/kg/injection, schedule: Q01DX009 (ip), vehicle: saline with Tween-80
[4] = endpoint: mean survival time, dose: 100.0 mg/kg/injection, schedule: Q04DX003 (ip), vehicle: saline with Tween-80
[5] = endpoint: mean survival time, dose: 200.0 mg/kg/injection, schedule: Q04DX003 (ip), vehicle: saline with Tween-80
[6] = endpoint: mean survival time, dose: 400.0 mg/kg/injection, schedule: Q04DX003 (ip), vehicle: saline with Tween-80
[7] = endpoint: mean survival time, dose: 100.0 mg/kg/injection, schedule: Q04DX002 (ip), vehicle: saline with Tween-80
[8] = endpoint: mean survival time, dose: 200.0 mg/kg/injection, schedule: Q04DX002 (ip), vehicle: saline with Tween-80
[9] = endpoint: mean survival time, dose: 400.0 mg/kg/injection, schedule: Q04DX002 (ip), vehicle: saline with Tween-80

Measured: T/C

Nc1ccc(OCCCc2ccccc2)c([N+](=O)[O-])c1
inactive: endpoint: mean survival time, dose: 100.0 mg/kg/injection, schedule: Q01DX001 (ip), vehicle: other 92 % of control and 100 % of control | [1] 96 % of control and 102 % of control | endpoint: mean survival time, dose: 100.0 mg/kg/injection, schedule: Q04DX002 (ip), vehicle: other 98 % of control | endpoint: mean survival time, dose: 100.0 mg/kg/injection, schedule: Q04DX003 (ip), vehicle: other 98 % of control | endpoint: mean survival time, dose: 200.0 mg/kg/injection, schedule: Q01DX001 (ip), vehicle: other 93 % of control and 98 % of control | [2] 96 % of control and 106 % of control | endpoint: mean survival time, dose: 200.0 mg/kg/injection, schedule: Q04DX002 (ip), vehicle: other 100 % of control | endpoint: mean survival time, dose: 200.0 mg/kg/injection, schedule: Q04DX003 (ip), vehicle: other 100 % of control | [3] 122 % of control and 93 % of control | endpoint: mean survival time, dose: 400.0 mg/kg/injection, schedule: Q04DX002 (ip), vehicle: other 102 % of control

CCOc1cccc(Cc2cn(Cc3ccccc3)c(=O)[nH]c2=O)c1
inactive: [4] 100 % of control | [5] 106 % of control | [6] 96 % of control

C[N+](C)(C)c1cccc(S)c1
inactive: [7] 104 % of control | [8] 112 % of control | [9] 100 % of control

O=C(O)c1cc([N+](=O)[O-])cc([N+](=O)[O-])c1 (tested in a mixture with another compound)
inactive: [7] 105 % of control and 114 % of control | [8] 101 % of control and 105 % of control | [9] 94 % of control

Cc1ccc2c(c1)nc1c3ccccc3nnn21
inactive: endpoint: mean survival time, dose: 75.0 mg/kg/injection, schedule: Q01DX001 (ip), vehicle: saline 95 % of control | endpoint: mean survival time, dose: 150.0 mg/kg/injection, schedule: Q01DX001 (ip), vehicle: saline 95 % of control

O=P1(O)Cc2ccccc2-c2ccccc21
inactive: [1] 100 % of control | [2] 110 % of control | [3] 98 % of control

c1ccc(N=N/C(=N/Nc2ccccc2)c2ccccc2)cc1
inactive: endpoint: mean survival time, dose: 6.25 mg/kg/injection, schedule: Q01DX009 (ip), vehicle: saline with Tween-80 104 % of control | endpoint: mean survival time, dose: 12.5 mg/kg/injection, schedule: Q01DX009 (ip), vehicle: saline with Tween-80 101 % of control | endpoint: mean survival time, dose: 25.0 mg/kg/injection, schedule: Q01DX009 (ip), vehicle: saline with Tween-80 98 % of control

CC(C)NC(=O)C1CC2c3cccc4c3C(CN4)CC2N(C)C1 (centres undefined)
inactive: endpoint: mean survival time, dose: 12.5 mg/kg/injection, schedule: Q04DX002 (ip), vehicle: saline with Tween-80 98 % of control | endpoint: mean survival time, dose: 25.0 mg/kg/injection, schedule: Q04DX002 (ip), vehicle: saline with Tween-80 95 % of control | endpoint: mean survival time, dose: 50.0 mg/kg/injection, schedule: Q04DX002 (ip), vehicle: saline with Tween-80 98 % of control

C#C[C@]1(O)CC[C@H]2[C@@H]3CCc4cc(O)ccc4[C@H]3CC[C@@]21C
inactive: endpoint: median survival time, dose: 31.2 mg/kg/injection, schedule: Q01DX009 (ip), vehicle: saline with Tween-80 106 % of control | endpoint: median survival time, dose: 62.5 mg/kg/injection, schedule: Q01DX009 (ip), vehicle: saline with Tween-80 97 % of control | endpoint: median survival time, dose: 125.0 mg/kg/injection, schedule: Q01DX009 (ip), vehicle: saline with Tween-80 97 % of control | endpoint: median survival time, dose: 250.0 mg/kg/injection, schedule: Q01DX009 (ip), vehicle: saline with Tween-80 101 % of control | endpoint: median survival time, dose: 500.0 mg/kg/injection, schedule: Q01DX009 (ip), vehicle: saline with Tween-80 104 % of control

Cc1ccc(C)c2c1CC/C(=C\c1ccccc1[N+](=O)[O-])C2=O
inactive: [4] 96 % of control | [5] 97 % of control | [6] 91 % of control

COc1cc(C)cc(N)n1
inactive: endpoint: mean survival time, dose: 6.25 mg/kg/injection, schedule: Q01DX001 (ip), vehicle: saline with Tween-80 89 % of control | endpoint: mean survival time, dose: 12.5 mg/kg/injection, schedule: Q01DX001 (ip), vehicle: saline with Tween-80 92 % of control | endpoint: mean survival time, dose: 25.0 mg/kg/injection, schedule: Q01DX001 (ip), vehicle: saline with Tween-80 89 % of control

O=C1c2c(Cl)c(Cl)c(Cl)c(Cl)c2C(=O)N1O
inactive: [4] 98 % of control | [2] 98 % of control | [5] 98 % of control | [6] 101 % of control

CCCCCCCC(=O)Nc1cc(C(F)(F)F)ccc1Cl
inactive: [1] 93 % of control | [2] 96 % of control | [3] 94 % of control

COC(=O)/N=C(/N)SC
inactive: [4] 100 % of control | [5] 106 % of control | [6] 97 % of control

CN(C)c1ccc2c(c1)Oc1cc(N(C)C)ccc1C21OC(=O)c2ccccc21
inactive: endpoint: mean survival time, dose: 100.0 mg/kg/injection, schedule: Q01DX001 (ip), vehicle: saline with Tween-80 97 % of control | endpoint: mean survival time, dose: 200.0 mg/kg/injection, schedule: Q01DX001 (ip), vehicle: saline with Tween-80 101 % of control | endpoint: mean survival time, dose: 400.0 mg/kg/injection, schedule: Q01DX001 (ip), vehicle: saline with Tween-80 97 % of control

O=[N+]([O-])c1ccc(OC(=S)c2ccccc2)cc1
inactive: [7] 96 % of control | [8] 96 % of control

Oc1c(Cl)c(Cl)c(Cl)c2ccccc12
inactive: [4] 100 % of control | [5] 97 % of control | [6] 100 % of control
